Where two headings read alike, the source gives them in different places.
What was measured:
dengue virus = assay: Dengue EC50 determination: PBMC infected with virus/humanized 4G2 antibody complex, plaque reduction assay using BHK cells; type: cell-based; conditions: M.O.I of 1, 48 hours, plaque reduction in BHK cells
Protocol: Cryopreserved PBMC (Peripheral Blood Mononuclear Cell) cells were purchased from AllCells, LLC in USA. The cells were then thawed according to manufacturer's instructions and re-suspended in RPMI medium supplemented with 1% penicillin/streptomycin solution and 10% Fetal Calf serum. The cells were then counted and viability checked (viability should be at least 80%). After centrifuging and removing the media, the cells were diluted to 1×10^7 cells/mL in RPMI medium supplemented with 1% penicillin/streptomycin. 50 μl of the cells were then dispensed into 96-well tissue culture plate resulting in 5×10^5 cells/well. Next, virus with humanized 4G2 mixture was prepared for infection. Briefly, virus (2×10^7 pfu/ml) was mixed with humanized 4G2 antibody with the final antibody concentration of 0.38 μg/ml and incubated for 30 minutes at 4° C. to assist virus/antibody complex formation. The virus-antibody complex was then added to the PBMC at multiplicity of infection (M.O.I) of 1. The mixture of cells, virus and antibody was then further incubated in the plates at 37° C. for an hour in the humidified incubator for virus attachment and infection to take place. Serial diluted compounds were then added to the final media volume of 200 μl with 2% Fetal Calf Serum (final PBMC concentration would be 2.5×10^6 cells/mL). The plates were then incubated at 37° C., 5% CO2 for another 48 hours. The extent of the infection and compound inhibition was measured by plaque reduction assay using BHK cells [RD-2004-80036]. Briefly, supernatants of BHK cells grown in 24-well tissue culture (seeded at 200,000 cells/well the night before) were removed and subjected to 200 μl of diluted supernatants derived from PBMC infection containing serial diluted compounds. After incubating it for 37° C. for 1 hour in the incubator, the supernatants were removed and BHK cells overlaid with RPMI media containing 0.8% methyl-cellulose, 0.5% DMSO, 0.05% sodium bicarbonate, 25 mM HEPES, 2% fetal bovine serum and 1% penicillin/streptomycin solution. After additional 4 days of incubation at 37° C. incubator, the monolayer of BHK cells were fixed with 4% paraformaldehyde, stained with crystal violet and plaques counted. The dose response (n=2) is calculated by Prism from Graphpad software using a mathematical curve fitting analysis called nonlinear regression with four independent parameters. Briefly, the software generates the best fit curve using the formula F(x)=((A−D)/(1+((x/C)̂B)))+D. In this formula, x represents the concentration of the compound, A is the minimum value, B represents the steepness of the curve (sometimes known as Hill slope), C is the inflection point and D is the maximum value. EC50 was estimated as the concentration of the compound which will inhibit 50% of the plaque formation. A positive control (7-deaza-2′-C-acetylene-adenosine) was used to ensure the quality of the data.

[1] = CCK8 cytotoxicity assay in THP-1 cells; type: cell-based; conditions: human, CCK-8
Protocol: 4 day cytotoxicity assay using THP-1 cells: THP-1 cells grown in suspension were counted and diluted to 8×10^4 cells/ml in RPMI-1640 media supplemented with 10% fetal bovine serum (FBS) and 1% penicillin/streptomycin. 25 ul of the THP-1 containing media consisting of 2000 cells were dispensed in 384-well tissue culture plate and pre-incubated at room temperature for 30 minutes, followed by 37° C., 5% CO2 overnight in the humidified incubator. On the next day, serial-diluted compound plates were prepared and 125 nl of compounds at various concentrations were then dispensed into the tissue culture well (200× dilution). The plates were then transferred to 37° C., 5% CO2 humidified incubator for additional 96 hours. Cytotoxicity was measured by CCK-8 assay. Briefly, CCK-8 was thawed on bench top and diluted 2.5× with the growth media. 35 ul of the pre-diluted CCK-8 was then introduced into each well and the plates were then further incubated in 37° C., 5% CO2 humidified incubator for 3 hours. The absorbance was read by Envision at 450 nm. Dose response curves were calculated as in the previous section (n=2). The CC50 is estimated as the concentration of the compound which will inhibit 50% of the signal. A positive control (puromycin) was used to ensure the quality of the data.

[2] = Liver S9 stability determination; type: in vitro ADME; conditions: human liver S9 fraction, 1 μM compound, 37° C., up to 120 mins, read-out: liver S9 t1/2
From the text: The liver is the main organ of metabolism and contains a high concentration of drug metabolizing enzymes. Metabolic clearance, particularly hepatic, is one of the main determinants affecting systemic drug exposure following both oral and i.v. administration. To assess the ability of the compounds of the invention to reach a systemic circulation, the hepatic S9 fraction was chosen to test for stability of the compounds. Hepatic S9 fraction was obtained following centrifugation of homogenized liver tissue at 9,000 g. The hepatic S9 fraction is composed of both microsomal and cytosolic fractions and contains all the enzymes contained in microsomes plus additional phase I and phase II cytosolic enzymes.
Stock solutions of each tested compound (100 μM) were prepared in methanol by two subsequent 1:10 dilutions from 10 mM DMSO drug solutions, the final assay concentration was 1 μM. Frozen pooled liver S9 fraction was thawed from −20° C. and diluted in phosphate buffer (with and without NADPH) which was pre-warmed at 37° C. for 10 minutes. The reaction was initiated by addition of compound. Manual sample plates were incubated on a Thermo Max Q 2000 shaker placed in a temperature controlled Sartorius Certomat H hood set at 37° C. Sequential samples were removed at designated timepoints (0, 5, 15, 30, 60 and 120 mins) and quenched with 4 volumes of ice cold acetonitrile (containing internal standard, diazepam), centrifuged and supernatants reconstituted in water (acetonitrile:water, 50:50% v/v). Samples were then analyzed by LCMS/MS or LC-UV to assess parent depletion. In vitro half-life (t1/2) is calculated based on the rate of disappearance of compound from the reaction mixture at incubation timepoints up to 2 hours.

[3] = CCK8 cytotoxicity assay in HepG2 cells; type: cell-based; conditions: human, CCK-8
Protocol: HepG2 cells were trypsinized, washed, counted and diluted to 1.6×10^4 cells/ml in DMEM-W/O Glucose, supplemented with 10% Fetal bovine serum (FBS), 1% Penicillin/Streptomycin, 2 mM HEPES, 1 mM Sodium Pyruvate, 10 mM Galactose & 2 mM Glutamine. 25 μl of the media containing 400 cells per well were dispensed in clear 384-well tissue culture plate and incubated at room temperature for 30 minutes. The plate was then transferred and placed at 37° C., 5% CO2 humidified incubator overnight. On the next day, serial-diluted compound plates were prepared and 125 nl of compounds at various concentrations were then dispensed into the tissue culture well (200× dilution). The plates were then transferred to 37° C., 5% CO2 humidified incubator for additional 96 hours. Cytotoxicity was measured by CCK-8 assay. Briefly, CCK-8 was thawed on bench top and diluted 2.5× with the growth media. 35 ul of the pre-diluted CCK-8 was then introduced into each well and the plates were then further incubated in 37° C., 5% CO2 humidified incubator for 3 hours. The absorbance was read by Envision at 450 nm. Dose response curves were calculated as in the previous section. The CC50 is estimated as the concentration of the compound which will inhibit 50% of the signal. A positive control (puromycin) was used to ensure the quality of the data.

[4] = Bulk-state stability and thermal conversion of crystalline forms; type: physicochemical; conditions: heated at approximate 142° C.
[5] = Stability in liver microsomes; type: in vitro ADME; conditions: human, read-out: liver microsomes t1/2

## CCOC(=O)[C@@H](N[P@]1(=O)OC[C@H]2O[C@@H](n3cnc4c(OCC)nc(N)nc43)[C@](C)(F)[C@@H]2O1)C(C)C [Example 11, (S)-ethyl 2-(((2S,4aR,6R,7R,7aR)-6-(2-amino-6-ethoxy-9H-purin-9-yl)-7-fluoro-7-methyl-2-oxidotetrahydro-4H-furo[3,2-d][1,3,2]dioxaphosphinin-2-yl)amino)-3-methylbutanoate]
Dengue virus
  EC50: 0.23 µM
[1]
  CC50 at 96 h: > 50 µM
[2]; pooled liver S9 fraction
  half-life at 1 μM: 82 min
[3]
  CC50 at 96 h: > 50 µM

## CCOc1nc(N)nc2c1ncn2[C@@H]1O[C@@H]2CO[P@](=O)(NCC(=O)OC(C)C)O[C@H]2[C@@]1(C)F [Example 8, isopropyl 2-(((2R,4aR,6R,7R,7aR)-6-(2-amino-6-ethoxy-9H-purin-9-yl)-7-fluoro-7-methyl-2-oxidotetrahydro-4H-furo[3,2-d][1,3,2]dioxaphosphinin-2-yl)amino)acetate]
Dengue virus
  EC50: 0.33 µM
[1]
  CC50 at 96 h: > 50 µM
[2]; pooled liver S9 fraction
  half-life at 1 μM: 57.5 min
[3]
  CC50 at 96 h: > 50 µM

## COC(=O)[C@H](C)N[P@@]1(=O)OC[C@H]2O[C@@H](n3cnc4c(OC(C)C)nc(N)nc43)[C@](C)(F)[C@@H]2O1 [Example 12, (S)-methyl 2-(((2R,4aR,6R,7R,7aR)-6-(2-amino-6-isopropoxy-9H-purin-9-yl)-7-fluoro-7-methyl-2-oxidotetrahydro-4H-furo[3,2-d][1,3,2]dioxaphosphinin-2-yl)amino)propanoate]
Dengue virus
  EC50: 0.43 µM
[1]
  CC50 at 96 h: > 50 µM
[3]
  CC50 at 96 h: > 50 µM

## CCOC(=O)[C@H](C)N[P@@]1(=O)OC[C@H]2O[C@@H](n3cnc4c(N)nc(N)nc43)[C@](C)(F)[C@@H]2O1 [Comparative Example 1, (S)-Ethyl 2-(((2R,4aR,6R,7R,7aR)-6-(2,6-diamino-9H-purin-9-yl)-7-fluoro-7-methyl-2-oxidotetrahydro-4H-furo[3,2-d][1,3,2]dioxaphosphinin-2-yl)amino)propanoate, reference compound]
Dengue virus
  EC50: > 25 µM

## CCOc1nc(N)nc2c1ncn2[C@@H]1O[C@@H]2CO[P@@](=O)(OC(C)C)O[C@H]2[C@@]1(C)F [Comparative Example 3, (2S,4aR,6R,7R,7aR)-6-(2-amino-6-ethoxy-9H-purin-9-yl)-7-fluoro-2-isopropoxy-7-methyltetrahydro-4H-furo[3,2-d][1,3,2]dioxaphosphinine 2-oxide, reference compound]
Dengue virus
  EC50: > 25 µM

## CCOC(=O)[C@H](C)N[P@@]1(=O)OC[C@H]2O[C@@H](n3cnc4c(OCC)nc(N)nc43)[C@](C)(F)[C@@H]2O1 [Form III, (S)-ethyl 2-(((2R,4aR,6R,7R,7aR)-6-(2-amino-6-ethoxy-9H-purin-9-yl)-7-fluoro-7-methyl-2-oxidotetrahydro-4H-furo[3,2-d][1,3,2]dioxaphosphinin-2-yl)amino)propanoate]
[4]
  form conversion on heating: converts to Form II crystalline form

## CCOC(=O)[C@H](C)N[P@@]1(=O)OC[C@H]2O[C@@H](n3ccc(=O)[nH]c3=O)[C@](C)(F)[C@@H]2O1 [Comparative Example 2, (S)-ethyl 2-(((2R,4aR,6R,7R,7aR)-6-(2,4-dioxo-3,4-dihydropyrimidin-1(2H)-yl)-7-fluoro-7-methyl-2-oxidotetrahydro-4H-furo[3,2-d][1,3,2]dioxaphosphinin-2-yl)amino)propanoate, reference compound]
Dengue virus
  EC50: > 25 µM

## CCCOc1nc(N)nc2c1ncn2[C@@H]1O[C@@H]2CO[P@](=O)(N[C@@H](C)C(=O)OC)O[C@H]2[C@@]1(C)F [Example 14, (S)-methyl 2-(((2R,4aR,6R,7R,7aR)-6-(2-amino-6-propoxy-9H-purin-9-yl)-7-fluoro-7-methyl-2-oxidotetrahydro-4H-furo[3,2-d][1,3,2]dioxaphosphinin-2-yl)amino)propanoate]
Dengue virus
  EC50: 0.18 µM
[1]
  CC50 at 96 h: > 50 µM
[3]
  CC50 at 96 h: > 50 µM

## COc1nc(N)nc2c1ncn2[C@@H]1O[C@H](CO[P@@](=O)(N[C@@H](C)C(=O)OC(C)C)Oc2ccccc2)[C@@H](O)[C@@]1(C)F [Comparative Example 4, (S)-isopropyl 2-(((S)-(((2R,3R,4R,5R)-5-(2-amino-6-methoxy-9H-purin-9-yl)-4-fluoro-3-hydroxy-4-methyltetrahydrofuran-2-yl)methoxy) (phenoxy)phosphoryl)amino)propanoate, reference compound]
[5]
  half-life: 6 min
[2]
  half-life at 1 μM: 18 min
